Experimental findings from a melting point compilation (Tetko et al.) are described below.

A word on the melting point: it is the temperature of the solid-liquid transition.

`O=C(O)c1cnn(C2CCCCC2)c1` gave a melting point of 197 to 199 °C.
Regarding `CC(C)N1C(=O)CC(C(=O)O)C1c1ccc(Cl)c(F)c1` (stereo unspecified), the melting point lay within 163 to 165 °C.
`Cc1noc(C)c1S(=O)(=O)N1CCCC1C(=O)O` (stereo unspecified) had a melting point of 133 to 137 °C.
For `N#Cc1c(F)cccc1S(=O)(=O)Cl`, the melting point was in the range of 63 to 65 °C.
`CCOc1ccc(NC(=O)CC#N)cc1` had a melting point of 95 to 100 °C.
With `Cn1nccc1C1CCNCC1` the figure was 66 to 68 °C; with `Cc1ccc(C)c(S(N)(=O)=O)c1`, 149 to 151 °C.
Compound `Cc1nc(SCC(=O)O)c(C#N)c(C)c1C` displayed a melting point of 135 to 138 °C.
In turn, `O=C(O)c1cc(=O)c2cc(Br)ccc2[nH]1` showed a melting point of 297 to 299 °C.
In the case of `Cc1cc([N+](=O)[O-])ccc1C#N` it was 99 to 101 °C; in that of `Cc1sc(=O)n(CC(=O)O)c1C`, 186 to 188 °C; in that of `O=C(O)CCc1nc(-c2ncccn2)no1`, 202 to 204 °C.
Consider `Cc1c(Cl)ccc(C(=O)O)c1N`, for which the melting point was 208 to 210 °C.
Take `Cn1cnc([N+](=O)[O-])c1S(=O)(=O)Cl`: the melting point is 100 to 102 °C.
Compound `O=Cc1cn(-c2ccc(F)c(Cl)c2)nn1` had a melting point of 148 to 150 °C.
With `CN1C(=O)CCC(C(N)=O)C1c1cnn(C)c1` (stereo unspecified) the figure was 185 to 187 °C.
With `O=C(O)CCn1cnc2ccccc2c1=O` the figure was 181 to 183 °C; with `N#CCCC(=O)c1ccco1`, 80 to 84 °C.
Turning to `NC(=O)c1c[nH]c2ccccc12`, the melting point lay in the range of 201 to 203 °C.
With `NS(=O)(=O)c1cnccn1` the figure was 166 to 168 °C; with `Cc1cc(Cl)c2c(c1)C(=O)C(=O)N2`, 173 to 175 °C; with `O=c1c2ccccc2[nH]c2ccc(O)cc12`, 319 to 321 °C.
`Cc1nnnn1-c1ccc(F)c(NC(=O)CCl)c1` came in with a melting point of 179 to 181 °C.
With `CC(C)(C)OC(=O)NCC1CCCCS1` (stereo unspecified) the figure was 70 to 72 °C; with `CC(C)(C)c1ccc(CC(C#N)C(N)=O)cc1` (stereo unspecified), 143 to 145 °C; with `COc1cc(OC)c(S(=O)(=O)Cl)cc1S(=O)(=O)Cl`, 139 to 141 °C.
In the case of `Cc1nnc2ccc(C#N)cn12` it was 201 to 203 °C.
The compound `Cc1cc(N)n(-c2ccncc2)n1` came in with a melting point of 96 to 98 °C.
With `Cc1ccc(S(=O)(=O)N(O)c2ccccc2)cc1` the figure was 36 to 40 °C; with `Cc1cc(CS(=O)(=O)Cl)no1`, 43 to 45 °C; with `Nc1cc(Br)cnc1-n1cccn1`, 72 to 74 °C.
With `Cc1cc(NN)nc2ccccc12` the figure was 146 to 148 °C; with `COC(=O)c1ccc(CNc2ccc3c[nH]nc3c2)cc1`, 152 to 154 °C.
In the case of `CC1C(=O)NCCN1C(=O)c1ccc(Cl)s1` (stereo unspecified) it was 149 to 151 °C; in that of `CC(C)(C)OC(=O)N1CCC(OCC(F)(F)F)(C(=O)O)CC1`, 259 to 261 °C; in that of `CCCNC(=O)Nc1ccc(CC(=O)O)cc1`, 174 to 176 °C.
Take `N#Cc1cn(-c2ccc([N+](=O)[O-])cc2)nc1N`: the melting point was in the range of 278 to 280 °C.
`NCc1cc(OCC(F)F)ccn1`: the melting point lay in the range of 71 to 73 °C.
`CCN(CC)CCn1c(N)nc2ccccc21` gave a melting point of 129 to 131 °C.
For the compound `NC(=O)C1CN(C(=O)CCl)c2ccccc2O1` (stereo unspecified), the melting point fell in the range of 133 to 135 °C.
With `CCc1ccc2c(c1)C(=O)C(=O)N2CC(=O)O` the figure was 166 to 168 °C; with `Cc1cc(SCC(=O)O)nc2ccccc12`, 117 to 119 °C.
In the case of `COc1ccc(C(=O)Nc2sc3c(c2C(=O)O)CCCC3)cc1` it was 216 to 220 °C; in that of `Cc1cc(C(=O)CCl)c(C)n1-c1cccc(Br)c1`, 102 to 104 °C.
With `O=C(Nc1ccccc1O)C1CC1` the figure was 136 to 138 °C; with `CCc1nc(-c2ccc(C(=O)O)cc2)n[nH]1`, 229 to 231 °C.
For the compound `OCC1CNC(c2ccccc2)=NO1` (stereo unspecified), the melting point was 149 to 151 °C.
Regarding `Nc1cccnn1`, the melting point lay within 169 to 171 °C.
`Cc1nc(-c2ccncc2)nc(Cl)c1C`: the melting point was 112 to 114 °C.
In the case of `NC(=O)Cc1csc(N)n1` it was 158 to 165 °C.
In turn, `CC(Cl)C(=O)N1CC(=O)Nc2cc(C(F)(F)F)ccc21` (stereo unspecified) registered a melting point of 152 to 154 °C.
In the case of `CC(O)c1nc2cc(C(F)(F)F)ccc2n1C` (stereo unspecified) it was 99 to 101 °C.
In the case of `Cc1cc(O)nc(-c2ccccn2)n1` it was 114 to 116 °C.
For `O=S(=O)(Cl)c1cnn(-c2ccccc2F)c1`, the melting point fell in the range of 81 to 83 °C.
`COc1ccc(C(N)Cc2ccccc2C)cc1OC` (stereo unspecified) had a melting point of 49 to 51 °C.
In the case of `CC1CN(CC(C)C(=O)NN)CC(C)O1` (stereo unspecified) it was 70 to 72 °C; in that of `CC(=O)Cn1c(=O)oc(=O)c2ccccc21`, 151 to 153 °C.
With `O=[N+]([O-])c1ccccc1CSc1ccc(C(F)(F)F)cn1` the figure was 64 to 66 °C; with `O=C(O)c1cnc2c(OC(F)(F)F)cccc2c1O`, 259 to 261 °C.
With `OC(C1CCCCN1)C(F)(F)F` (stereo unspecified) the figure was 94 to 96 °C.
For the compound `O=C(O)C1(c2cccc(Cl)c2)CC1`, the melting point fell in the range of 135 to 137 °C.
For `Cc1ccc(C(=O)NO)cc1O`, the melting point lay within 169 to 171 °C.
Turning to `NCC1CC(=O)Nc2ccccc21` (stereo unspecified), the melting point was 142 to 144 °C.
With `COc1cc(C)ccc1C(=O)CBr` the figure was 77 to 79 °C.
In the case of `c1nc(N2CCOCC2)c2nc[nH]c2n1` it was 301 to 303 °C; in that of `Nc1cnccc1-n1ccnc1`, 134 to 136 °C.
In turn, `O=CC(Br)C=Nc1nccs1` (stereo unspecified) yielded a melting point of 137 to 139 °C.
Turning to `Cc1cccc(S(=O)(=O)Cl)c1Br`, the melting point fell in the range of 56 to 58 °C.
In the case of `NC(=NO)c1ccc2c(c1)OCO2` it was 164 to 166 °C; in that of `OC1(Cc2cccc(F)c2)CCNC1` (stereo unspecified), 59 to 61 °C; in that of `NC(=O)c1ccccc1N1CCC(N)C1` (stereo unspecified), 138 to 140 °C.
For `Cc1cc(C)c2c(N)nsc2n1`, the melting point was 180 to 182 °C.
In the case of `Cc1ccc(S(=O)(=O)NC(C(=O)O)C(C)C)cc1` (stereo unspecified) it was 167 to 169 °C.
For `Cc1ccc(-n2cc(S(=O)(=O)Cl)cn2)cc1S(=O)(=O)Cl`, the melting point is 114 to 116 °C.
`Cc1ccc(S(=O)(=O)N2CCN(C(=O)C(C)Cl)CC2)cc1` (stereo unspecified) returned a melting point of 153 to 155 °C.
The compound `Cc1ccc(NC2C=CS(=O)(=O)C2)cc1` (stereo unspecified) registered a melting point of 115 to 117 °C.
With `Cc1nn(Cc2c(Cl)cccc2Cl)c2sc(C(=O)O)cc12` the figure was 282 to 284 °C; with `COc1ccc(N)cc1OCCO`, 99 to 101 °C.
`Nc1ccc(S(=O)(=O)CCO)cc1` yielded a melting point of 106 to 108 °C.
In the case of `N#CCc1c[nH]c2cc(F)ccc12` it was 52 to 54 °C; in that of `Cc1ccc2[nH]c3c(c2c1)CC(C)(C)CC3`, 114 to 116 °C; in that of `CC(Cl)C(=O)NC1CCCC1` (stereo unspecified), 111 to 113 °C.
In the case of `O=C1CCCCC(N2C(=O)c3ccccc3C2=O)C1` (stereo unspecified) it was 119 to 121 °C.
For `Nc1ccc(OCc2ccccn2)c(Cl)c1`, the melting point is 91 to 93 °C.
With `CCc1ccc(S(=O)(=O)Cl)cc1C(=O)O` the figure was 133 to 135 °C.
With `O=S(=O)(c1ccc2oc(S)nc2c1)N1CCCCC1` the figure was 139 to 141 °C; with `O=c1[nH]c(S)nc2c1cnn2-c1ccccc1`, 110 to 113 °C.
In the case of `CNCc1ccc(O)cc1` it was 103 to 105 °C; in that of `c1ccc2[nH]c(C3CCNCC3)nc2c1`, 253 to 255 °C; in that of `Cc1cccc(-c2nc(C(=O)O)c(C)[nH]2)c1`, 149 to 151 °C.
Take `CCN(CC)S(=O)(=O)c1ccc(F)c(C(=O)O)c1`: the melting point is 161 to 163 °C.
With `O=C1NC(=O)N(C2CC2)C1=O` the figure was 115 to 117 °C; with `NNC(=O)Cc1ccc(Cl)cc1`, 165 to 167 °C.
In the case of `CC1(c2cccnc2)NC(=O)NC1=O` (stereo unspecified) it was 144 to 146 °C.
For `O=C(O)c1cc(S(=O)(=O)F)cs1`, the melting point was in the range of 191 to 193 °C.
For `CN(C)C(=O)Sc1ccc(CCl)cc1`, the melting point is 78 to 80 °C.
Turning to `CCOc1c(OC)cc(C=O)cc1OC`, the melting point was in the range of 48 to 50 °C.
`Nc1ccccc1CS(=O)(=O)c1ccccc1` gave a melting point of 172 to 174 °C.
In the case of `NC(=S)CCc1ccccc1` it was 82 to 84 °C; in that of `Cc1ccc(SCCC(=O)O)cc1`, 71 to 73 °C.
In the case of `O=C(O)C1CCCN1c1ncccn1` (stereo unspecified) it was 139 to 141 °C; in that of `O=C1CC2CCCC(C1)N2Cc1cccs1`, 88 to 90 °C.
In turn, `O=C(O)c1cc2c(F)cccc2[nH]1` showed a melting point of 209 to 211 °C.
Take `O=C(O)c1ccc2cc[nH]c2n1`: the melting point lay within 209 to 211 °C.
With `CN1CCN(S(=O)(=O)c2cccnc2NN)CC1` the figure was 109 to 111 °C.
With `CC1(C)CN(C(=O)OC(C)(C)C)c2ccccc2N1` the figure was 92 to 94 °C; with `NC1c2ccccc2-c2ccccc21`, 43 to 45 °C; with `NS(=O)(=O)c1cc(F)cc(C(=O)O)c1Br`, 207 to 209 °C.
Turning to `Cc1nc(S)sc1CC(=O)O`, the melting point lay within 205 to 207 °C.
With `CCc1nc2sccc2c(=O)[nH]1` the figure was 199 to 201 °C; with `Nc1nnc(-c2ccc([N+](=O)[O-])o2)o1`, 259 to 261 °C; with `CC(Oc1ccc(F)c(F)c1)C(=O)O` (stereo unspecified), 39 to 41 °C.
In the case of `CC1CNc2ccccc2N(Cc2ccccc2)C1=O` (stereo unspecified) it was 107 to 109 °C; in that of `CC(C)CC(=O)Nc1ccc(C(=O)O)cc1F`, 257 to 259 °C.
Take `O=[N+]([O-])c1cnc2c(c1)CCC2`: the melting point fell in the range of 85 to 87 °C.
In the case of `OCc1cc(Cl)cc2c1OCC2` it was 97 to 99 °C; in that of `Nc1nnc(SCc2ccccc2)[nH]1`, 99 to 101 °C.
Turning to `CCOC(=O)c1cc(F)ccc1S(=O)(=O)Cl`, the melting point was in the range of 69 to 71 °C.
In the case of `N#Cc1cc(Cl)ccc1OCC(F)(F)F` it was 66 to 68 °C.
`CS(=O)(=O)N1CCN(C(=O)c2ccc(O)cc2)CC1` registered a melting point of 211 to 213 °C.
With `O=[N+]([O-])c1ccc(F)cc1NC1CC1`, the melting point lay within 69 to 71 °C.
